One series relates to ACHN. Description: Anticancer activity against human ACHN cells assessed as cell growth level at 10 uM after 48 hrs by sulforhodamine B assay. The series is classed as functional. On the technique in general: The SRB assay estimates cell density from bound dye.
Series [1] can be described thus: Anticancer activity against human LOXIMVI cells assessed as cell growth level at 10 uM after 48 hrs by sulforhodamine B assay. The series is classed as functional, LOX IMVI.
A short description of series [2]: Anticancer activity against human HCT116 cells assessed as cell growth level at 10 uM after 48 hrs by sulforhodamine B assay. The class given is functional, HCT-116.
For series [3], the system named is Rattus norvegicus. In words: Antidiabetic activity in Wistar rat model of streptozotocin-induced diabetes assessed as reduction in plasma glucose level at 30 mg/kg, po and dosage repeated for 15 days by GOD-POD method. The arrangement: dose 30 mg/kg. The class given is functional, organism-based.
A further series deals with MDA-MB-231. In words: Anticancer activity against human MDA-MB-231 cells assessed as cell growth level at 10 uM after 48 hrs by sulforhodamine B assay. The class given is functional.
Series [4] is described as follows: Anticancer activity against human OVCAR4 cells assessed as cell growth level at 10 uM after 48 hrs by sulforhodamine B assay. The series is classed as functional, OVCAR-4.
Series [5] deals with Peroxisome proliferator-activated receptor gamma (Mus musculus) (UniProt P37238). In words: Transactivation of PPARgamma (mouse) expressed in 3T3-L1 cells incubated for 24 hrs by luciferase reporter gene assay relative to rosiglitazone.
A short description of series [6]: Anticancer activity against human COLO205 cells assessed as cell growth level at 10 uM after 48 hrs by sulforhodamine B assay. The series is classed as functional, COLO 205.
In another series the test system is NCI-H322M. Description: Anticancer activity against human NCI-H322M cells assessed as cell growth level at 10 uM after 48 hrs by sulforhodamine B assay. The series is classed as functional.
The nature of series [7]: Anticancer activity against human UO31 cells assessed as cell growth level at 10 uM after 48 hrs by sulforhodamine B assay. The series is classed as functional, UO-31.
Series [8] is described as follows: Anticancer activity against human UACC257 cells assessed as cell growth level at 10 uM after 48 hrs by sulforhodamine B assay. The series is classed as functional, UACC-257.
The nature of series [9]: Anticancer activity against human BT549 cells assessed as cell growth level at 10 uM after 48 hrs by sulforhodamine B assay. The series is classed as functional, BT-549.
The next series deals with CCRF-CEM. Description: Anticancer activity against human CCRF-CEM cells assessed as cell growth level at 10 uM after 48 hrs by sulforhodamine B assay. The class given is functional.
The subject of the next series is CAKI-1. In words: Anticancer activity against human CAKI-1 cells assessed as cell growth level at 10 uM after 48 hrs by sulforhodamine B assay. The series is classed as functional.
The nature of series [10]: Anticancer activity against human HCT15 cells assessed as cell growth level at 10 uM after 48 hrs by sulforhodamine B assay. The class given is functional, HCT-15.
A further series has as its system SK-MEL-5. Description: Anticancer activity against human SK-MEL-5 cells assessed as cell growth level at 10 uM after 48 hrs by sulforhodamine B assay. The class given is functional.
Series [11] can be described thus: Anticancer activity against human OVCAR5 cells assessed as cell growth level at 10 uM after 48 hrs by sulforhodamine B assay. The class given is functional, OVCAR-5.
Series [12] deals with Rattus norvegicus. In words: Increase in body weight in Wistar rat model of streptozotocin-induced diabetes at 30 mg/kg, po measured over 15 days. The class given is ADME, organism-based. The arrangement: dose 30 mg/kg, route oral. The conditions noted are these: in vivo, 360 h.

Experimental findings from ChEMBL document CHEMBL3351675, “Novel benzenesulfonylureas containing thiophenylpyrazoline moiety as potential antidiabetic and anticancer agents” (Bioorg Med Chem Lett, 2014) are described below.

Calls of active or inactive are those of the source. The calls are words filed in the database; no cut-off is given here.

Sequence of Peroxisome proliferator-activated receptor gamma (Mus musculus) (P37238 whole entry, looked up): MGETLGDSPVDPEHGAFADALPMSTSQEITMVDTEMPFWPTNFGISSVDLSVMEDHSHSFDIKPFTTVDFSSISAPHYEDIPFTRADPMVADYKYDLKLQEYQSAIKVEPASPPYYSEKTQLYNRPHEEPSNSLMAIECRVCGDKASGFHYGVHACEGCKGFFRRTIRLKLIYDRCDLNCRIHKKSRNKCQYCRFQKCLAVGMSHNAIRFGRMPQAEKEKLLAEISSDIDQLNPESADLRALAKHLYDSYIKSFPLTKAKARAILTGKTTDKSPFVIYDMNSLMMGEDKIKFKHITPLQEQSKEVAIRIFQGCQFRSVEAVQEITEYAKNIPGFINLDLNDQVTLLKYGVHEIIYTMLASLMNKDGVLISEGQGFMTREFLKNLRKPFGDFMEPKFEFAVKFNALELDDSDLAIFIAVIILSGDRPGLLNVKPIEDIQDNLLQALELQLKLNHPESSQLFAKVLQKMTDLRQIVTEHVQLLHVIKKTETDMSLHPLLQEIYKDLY

Take `COc1ccc(NC(=O)NS(=O)(=O)c2ccc(N3N=C(c4cccs4)CC3c3ccc(C)s3)cc2)cc1` (centres undefined): the Activity with ACHN is 93.16%; in series [1] it was 96.81%; in series [2], 98.77%; in the series with MDA-MB-231, 113.39%; in series [4], 102.84%; in series [6] it was -63.47%. Also, the Activity came to 102.37% in the series with NCI-H322M; 87.18% in [7]; 49.98% in series [8]; 116.23% in series [9]; 88.12% in the series with CCRF-CEM; 94.74% in the series with CAKI-1. Also, the results for the Activity (in [10]; in the series on SK-MEL-5; in [11]) were 102.46%, 48.27% and 113.48%, respectively. The inhibition entry with Rattus norvegicus [3] was “Active”. The outcome in series [5] was inactive.
For `Cc1ccc(NC(=O)NS(=O)(=O)c2ccc(N3N=C(c4cccs4)CC3c3ccc(C)s3)cc2)cc1` (centres undefined), the Activity with ACHN is recorded as 96.6%; in series [1], 99.74%; in series [2], 85.12%; in the series on MDA-MB-231, 116.79%; in [4], 106.4%; in [6], -54.62%. The Activity result was “Toxic” in the series on Rattus norvegicus [12]; 103.57% in the series on NCI-H322M; 85.69% in series [7]; 61.42% in series [8]; 74.25% in series [9]; 87.89% in the series with CCRF-CEM. Moreover, the Activity with CAKI-1 was 95.78%; in series [10], 99.31%; in the series with SK-MEL-5, 47.78%; in series [11], 114.78%. Also, the result in series [5] was inactive.
